Source: patent publication US7494976B2, “Caveolin peptides and their use as therapeutics” (Yale University, priority 2000, dated 2009)
“Also recorded” adds a separate entry of the source. Ends that are not written are not given here. Peptide text beside a SMILES is read from it.

Key:
isolated mouse aorta = assay: Ach-induced relaxation of isolated mouse aortic rings (organ bath); conditions: AP alone 30 μM, twenty hours incubation
Protocol: For isolated mouse aortic rings preparations, male C57 black mice (5-7 weeks of age) were anesthetized with methoxyflurane and sacrificed by exsanguination. The thoracic aorta was dissected and cut into cylindrical segments of three millimeters in length. Using a sterile 48-well tissue culture plate, each ring was incubated in a total volume of one ml with either peptides or vehicle (DMSO) diluted in DMEM supplemented with penicillin (100 units/ml), streptomycin (100 μg/ml) and L-glutamine (1 mM). The plate was incubated with 5% CO2. Following incubation with the peptides (one, six, twelve or twenty hours), rings were washed in oxygenated (95% O2-5% CO2) Krebs-Henseleit bicarbonate buffer solution (KHS) of the following composition (NaCl—118.3 mmol/L, KCl—4.7 mmol/L, CaCl2—2.5 mmol/L, MgSO4—1.2 mmol/L, KH2PO4—1.2 mmol/L, NaHCO3—25 mmol/L, glucose—5.6 mmol/L at 37° C. with ibuprofen (10 μM). The rings were suspended by two tungsten wires ([…] thickness) inserted into the lumen and mounted in a vessel myograph system (five ml chamber, Kent Scientific). The mouse aortas were submitted to a resting tension of 1.5 grams and isometric tension was recorded using a force transducer coupled to a MacLab data acquisition system. […] In some experiments concentration-response curves to the contractile effects of PE were monitored.

isolated mouse aortas = assay: Sodium nitroprusside induced (endothelium independent) relaxation of mouse aorta; conditions: AP 30 μM, twenty hours; SNP 10 μM
prostacyclin production = assay: Prostacyclin release from mouse aortic rings (6-keto-PGF1α by EIA); conditions: ibuprofen 10 μM
Protocol: To further test the specificity of AP-Cav, Ach-induced prostacyclin production was measured. For measurement of prostacyclin release, after twenty hour incubation period, aortic segments (4-5 mm) were placed in sterile 48-well tissue culture plates with 300 μl of KHS at 37° C. for thirty minutes in an incubator. Then aliquots of […] were taken in order to measure the basal release of prostacyclin. Ach (1 μM) was added and the plate was kept in the incubator for an additional thirty minutes. Aliquots were then taken in order to measure the Ach-stimulated release of prostacyclin. This protocol was performed in absence or in presence of ibuprofen (10 μM). The aliquots were frozen and prostacyclin release was measured as the stable breakdown product, 6-keto-PGF1α, by EIA (Amersham).

[1] = Systemic arterial blood pressure and heart rate in mice; assay type: in vivo, mouse
mouse aorta = assay: Uptake of biotinylated peptides into the vessel wall of mouse aorta; conditions: biotinylated peptides 100 μM, twenty hours, HRP staining
Protocol: The uptake of AP-Cav into the vessel wall was examined next. A biotinylated version of AP-Cav and AP-Cav-X was synthesized. After twenty hours of incubation with the biotinylated peptides (100 μM) or vehicle, rings were placed in a dish and washed twice with PBS (twenty minutes each time) with light shaking, in order to eliminate the excess of biopeptide that could deposit over the tissue. Then the rings were embedded in OCT medium and cross sections ([…] thickness) were obtained for staining with an avidin-horseradish peroxidase complex and reactivity was detected with 3-amino-9-ethylcarbazole (AEC).

[2] = conditions of the edema study, n=4 mice

In the case of “AP: Antennapedia internalization sequence (RQIKIWFQNRRMKWKK), SEQ ID NO: 10, alone (Drosophila melanogaster; DOMAIN (1)..(16) Homeodomain, internalization sequence)”, the “effect on Ach-induced relaxation” value (isolated mouse aorta) is reported as “did not influence Ach-induced relaxation; also recorded: does not affect Ach induced relaxations” and the “effect on vasorelaxant properties of sodium nitroprusside” value (isolated mouse aortas) is reported as “had no effect”.

For `CC(C)Cc1ccc(C(C)C(=O)O)cc1` (centres unmarked) [ibuprofen], the “Ach-induced prostacyclin production (6-keto-PGF1α)” value (prostacyclin production) was “abolished”.

For “RQIKIWFQNRRMKWKKDGIWKASFTTFTVTKYWFYR [AP-Cav]”, the heart rate [1, 2] was 320±29 beats per minute, the “systemic arterial blood pressure” value [1, 2] was 80±7 mm Hg and the “effect on blood pressure when delivered in vivo” value ([1]; preliminary evidence) was “do not increase blood pressure”.

For `CC[C@H](C)[C@H](NC(=O)CNC(=O)[C@H](CC(=O)O)NC(=O)[C@H](CCCCN)NC(=O)[C@H](CCCCN)NC(=O)[C@H](Cc1c[nH]c2ccccc12)NC(=O)[C@H](CCCCN)NC(=O)[C@H](CCSC)NC(=O)[C@H](CCCNC(=N)N)NC(=O)[C@H](CCCNC(=N)N)NC(=O)[C@H](CC(N)=O)NC(=O)[C@H](CCC(N)=O)NC(=O)[C@H](Cc1ccccc1)NC(=O)[C@H](Cc1c[nH]c2ccccc12)NC(=O)[C@@H](NC(=O)[C@H](CCCCN)NC(=O)[C@@H](NC(=O)[C@H](CCC(N)=O)NC(=O)[C@H](CCCNC(=N)N)NC(=O)CCCCCNC(=O)CCCC[C@@H]1SC[C@@H]2NC(=O)N[C@@H]21)[C@@H](C)CC)[C@@H](C)CC)C(=O)N[C@@H](Cc1c[nH]c2ccccc12)C(=O)N[C@@H](CCCCN)C(=O)N[C@@H](C)C(=O)N[C@@H](CO)C(=O)N[C@@H](Cc1ccccc1)C(=O)N[C@H](C(=O)N[C@H](C(=O)N[C@@H](Cc1ccccc1)C(=O)N[C@H](C(=O)N[C@H](C(=O)N[C@H](C(=O)N[C@@H](CCCCN)C(=O)N[C@@H](Cc1ccc(O)cc1)C(=O)N[C@@H](Cc1c[nH]c2ccccc12)C(=O)N[C@@H](Cc1ccccc1)C(=O)N[C@@H](Cc1ccc(O)cc1)C(=O)N[C@@H](CCCNC(=N)N)C(=O)O)[C@@H](C)O)C(C)C)[C@@H](C)O)[C@@H](C)O)[C@@H](C)O` [Biot-AP-Cav] (HELM PEPTIDE1{[O=C1N[C@H]2[C@H](CS[C@H]2CCCCC(=O)[*:2])N1].[O=C(CCCCCN[*:1])[*:2]].R.Q.I.K.I.W.F.Q.N.R.R.M.K.W.K.K.D.G.I.W.K.A.S.F.T.T.F.T.V.T.K.Y.W.F.Y.R}$$$$V2.0; N-terminus and C-terminus assumed), the “uptake into the vessel wall” value (mouse aorta) was “uptake of both AP-Cav and AP-Cav-X into the endothelium and adventitial lining of the vessel”.

With `CC[C@H](C)[C@H](NC(=O)CNC(=O)[C@H](Cc1c[nH]c2ccccc12)NC(=O)[C@H](CCCCN)NC(=O)[C@H](CCCCN)NC(=O)[C@H](Cc1c[nH]c2ccccc12)NC(=O)[C@H](CCCCN)NC(=O)[C@H](CCSC)NC(=O)[C@H](CCCNC(=N)N)NC(=O)[C@H](CCCNC(=N)N)NC(=O)[C@H](CC(N)=O)NC(=O)[C@H](CCC(N)=O)NC(=O)[C@H](Cc1ccccc1)NC(=O)[C@H](Cc1c[nH]c2ccccc12)NC(=O)[C@@H](NC(=O)[C@H](CCCCN)NC(=O)[C@@H](NC(=O)[C@H](CCC(N)=O)NC(=O)[C@H](CCCNC(=N)N)NC(=O)CCCCCNC(=O)CCCC[C@@H]1SC[C@@H]2NC(=O)N[C@@H]21)[C@@H](C)CC)[C@@H](C)CC)C(=O)N[C@@H](CC(=O)O)C(=O)N[C@@H](CCCCN)C(=O)N[C@@H](C)C(=O)N[C@@H](Cc1ccccc1)C(=O)N[C@@H](Cc1ccccc1)C(=O)N[C@H](C(=O)N[C@H](C(=O)N[C@@H](CO)C(=O)N[C@H](C(=O)N[C@H](C(=O)N[C@H](C(=O)N[C@@H](Cc1ccc(O)cc1)C(=O)N[C@@H](CCCCN)C(=O)N[C@@H](Cc1c[nH]c2ccccc12)C(=O)N[C@@H](Cc1ccccc1)C(=O)N[C@@H](CCCNC(=N)N)C(=O)N[C@@H](Cc1ccc(O)cc1)C(=O)O)[C@@H](C)O)C(C)C)[C@@H](C)O)[C@@H](C)O)[C@@H](C)O` [Biot-AP-Cav-X] (HELM PEPTIDE1{[O=C1N[C@H]2[C@H](CS[C@H]2CCCCC(=O)[*:2])N1].[O=C(CCCCCN[*:1])[*:2]].R.Q.I.K.I.W.F.Q.N.R.R.M.K.W.K.K.W.G.I.D.K.A.F.F.T.T.S.T.V.T.Y.K.W.F.R.Y}$$$$V2.0; N-terminus and C-terminus assumed) the “uptake into the vessel wall” value (mouse aorta) was “uptake of both AP-Cav and AP-Cav-X into the endothelium and adventitial lining of the vessel”.
